Where “and” joins values, the source holds several entries; their conditions need not be identical. Identical values can stand only once. Like-named read-outs stand apart in the source and are kept apart here.
What was measured:
[1] = Time dependent organ distribution of CPT after intranasal administration of DLPC liposomes; assay type: in vivo; conditions: other: intranasal instillation, mice, intranasal DLPC liposomal CPT 7 μg per mouse, read-out: CPT in tissue
Procedure: The mobile phase was 30% acetonitrile and 70% of 0.1% glacial acetic acid. CPT was detected using the Waters 470 scanning fluorescence detector set to an excitation wavelength of 370 nm and an emission wavelength of 440 nm. […] The data were analyzed with the Waters Millenium software. […]
CPT was administered in liposomal formulation prepared with DLPC with initial drug concentration 0.2 mg/ml.
35 μL of suspension was installed to each animal (group of 3 animals was treated for each time point).

[2] = Time dependent organ distribution of CPT after intramuscular administration; assay type: in vivo; conditions: mouse, mice, i.m. CPT in DMSO/saline suspension, read-out: CPT in tissue
Procedure: (§1) The mobile phase was 30% acetonitrile and 70% of 0.1% glacial acetic acid. CPT was detected using the Waters 470 scanning fluorescence detector set to an excitation wavelength of 370 nm and an emission wavelength of 440 nm. […] The data were analyzed with the Waters Millenium software.
Drug disappeared very slowly from the site of intramuscular injection in the first 12 hours, with only very small concentrations detected in the liver and virtually no drug present at other sites. Concentrations in the blood were negligible throughout the study. The dose administered was the same as that given by intranasal instillation. These findings indicate a speedier and more efficient systemic absorption of drug after pulmonary administration of drug than by the intramuscular route. It is likely that deposition in organs and vascular spaces will increase the opportunity for exposure to albumin molecules and degradation to the carboxyl form of the drug.

[3] = Tissue distribution of CPT after inhalation of CPT liposome aerosol; assay type: in vivo, Mouse; conditions: mice; for CPT in tissue: individual animals; for concentration at 15 min: mouse, in vivo, 486 ng per mouse, 4 animals, read-out: MEAN (±SD) CPT in tissue
Procedure: The final suspension was clear. If precipitation occurred, it was reheated to 50-60° C. The preparation was frozen in liquid nitrogen and lyophilized overnight. For use the material was dissolved in sterile water to the appropriate drug concentration, not exceeding 1.0 mg/ml for either drug. The efficiency of incorporation of drug in the liposomes was examined qualitatively by microscopic examination under polarized light. Unincorporated drug was seen as bi-refringent crystals. The efficiency of incorporation was examined by centrifugation of aqueous suspensions of liposomes on Percoll™ gradients. One-tenth ml of suspension was layered over 2 ml of gradient and centrifuged at 2000 rpm for 25-30 minutes. Liposomes layer at the water-Percoll interface, while unincorporated drug was deposited at the bottom of the tube. Many other lipids may be substituted for DLPC in the formulation and use of liposomes for delivery of drugs by aerosol (26).
as §1
The deposited dose was calculated to be 486 ng per mouse. The mean concentrations in lungs and liver were similar with smaller concentrations in the other sites examined. […] Drug was cleared promptly from the lungs so that 15 minutes after stopping nebulization only negligible amounts of drug were present in the lungs. Liver, kidney and spleen had substantial amounts of drug initially which gradually diminished through the one hour of study. […] These studies indicate substantial immediate deposition of drug in the lungs with rapid clearance to the viscera. The amount of drug contributed by absorption from swallowed drug is uncertain.

[4] = site of injection, 7 µg/mouse, Site of inj.
[5] = whole blood, 7 μg per mouse, Blood
[6] = Blood, after 15 minutes inhalation of CPT liposome aerosol
[7] = Kidney, after 15 minutes inhalation of CPT liposome aerosol
[8] = Liver, after 15 minutes inhalation of CPT liposome aerosol
[9] = Spleen, after 15 minutes inhalation of CPT liposome aerosol

**Q.** With `CC[C@@]1(O)C(=O)OCc2c1cc1n(c2=O)Cc2cc3ccccc3nc2-1` [CPT, 20-S-camptothecin] as the molecule, how does the concentration at 0 min ([1]; Kidney) read?
**A.** 542 ± 174 ng/g

**Q.** And the concentration at 15 min ([1]; Kidney)?
**A.** 190 ± 57 ng/g

**Q.** What about the concentration at 30 min ([1]; Kidney) of the same molecule?
**A.** 49 ± 13 ng/g

**Q.** And the concentration at 60 min ([1]; Kidney)?
**A.** 24 ± 21 ng/g

**Q.** What about the concentration at 0 min ([1]; Liver) of the same molecule?
**A.** 651 ± 418 ng/g

**Q.** What about the concentration at 15 min ([1]; Liver) of the same molecule?
**A.** 255 ± 101 ng/g

**Q.** What about the concentration at 30 min ([1]; Liver) of the same molecule?
**A.** 66 ± 17 ng/g

**Q.** And the concentration at 60 min ([1]; Liver)?
**A.** 34 ± 7 ng/g

**Q.** What about the concentration at 0 min ([1]; Lung) of the same molecule?
**A.** 1290 ± 657 ng/g

**Q.** What about the concentration at 15 min ([1]; Lung) of the same molecule?
**A.** 19 ± 3 ng/g

**Q.** What about the concentration at 30 min ([1]; Lung) of the same molecule?
**A.** 36 ± 23 ng/g

**Q.** What about the concentration at 60 min ([1]; Lung) of the same molecule?
**A.** 7 ± 3 ng/g

**Q.** What about the concentration at 0 min ([1]; Spleen) of the same molecule?
**A.** 351 ± 137 ng/g

**Q.** And the concentration at 15 min ([1]; Spleen)?
**A.** 84 ± 32 ng/g

**Q.** What about the concentration at 30 min ([1]; Spleen) of the same molecule?
**A.** 21 ± 8 ng/g

**Q.** And the concentration at 60 min ([1]; Spleen)?
**A.** 7 ± 2 ng/g

**Q.** What about the concentration at 0 min ([1]; whole blood, Blood) of the same molecule?
**A.** 213 ± 19 ng/g

**Q.** What about the concentration at 15 min ([1]; whole blood, Blood) of the same molecule?
**A.** 53 ± 20 ng/g

**Q.** And the concentration at 30 min ([1]; whole blood, Blood)?
**A.** 8 ± 3 ng/g

**Q.** What about the concentration at 60 min ([1]; whole blood, Blood) of the same molecule?
**A.** 4 ± 2 ng/g

**Q.** And the concentration at 0 min ([2]; 7 μg per mouse, Kidney)?
**A.** 2 ng/g

**Q.** What about the concentration at 30 min ([2]; 7 μg per mouse, Kidney) of the same molecule?
**A.** 40 ± 14 ng/g

**Q.** What about the concentration at 60 min ([2]; 7 μg per mouse, Kidney) of the same molecule?
**A.** 26 ± 7 ng/g

**Q.** And the concentration at 1200 min ([2]; 7 μg per mouse, Kidney)?
**A.** 15 ± 5 ng/g

**Q.** What about the concentration at 0 min ([2]; 7 μg per mouse, Spleen) of the same molecule?
**A.** 2 ± 1 ng/g

**Q.** What about the concentration at 30 min ([2]; 7 μg per mouse, Spleen) of the same molecule?
**A.** 18 ± 9 ng/g

**Q.** What about the concentration at 60 min ([2]; 7 μg per mouse, Spleen) of the same molecule?
**A.** 11 ± 5 ng/g

**Q.** And the concentration at 1200 min ([2]; 7 μg per mouse, Spleen)?
**A.** 5 ± 1 ng/g

**Q.** What about the concentration at 60 min ([2]; 7 µg/mouse, Blood) of the same molecule?
**A.** 8 ± 1 ng/g

**Q.** What about the concentration at 1200 min ([2]; 7 µg/mouse, Blood) of the same molecule?
**A.** 4 ± 1 ng/g

**Q.** What about the concentration at 0 min ([2]; 7 µg/mouse, Liver) of the same molecule?
**A.** 3 ± 1 ng/g

**Q.** And the concentration at 30 min ([2]; 7 µg/mouse, Liver)?
**A.** 87 ± 74 ng/g

**Q.** What about the concentration at 60 min ([2]; 7 µg/mouse, Liver) of the same molecule?
**A.** 136 ± 107 ng/g

**Q.** What about the concentration at 1200 min ([2]; 7 µg/mouse, Liver) of the same molecule?
**A.** 126 ± 116 ng/g

**Q.** What about the concentration at 0 min ([2]; 7 µg/mouse, Lung) of the same molecule?
**A.** 2 ± 1 ng/g

**Q.** What about the concentration at 30 min ([2]; 7 µg/mouse, Lung) of the same molecule?
**A.** 4 ± 2 ng/g

**Q.** What about the concentration at 60 min ([2]; 7 µg/mouse, Lung) of the same molecule?
**A.** 3 ± 3 ng/g

**Q.** What about the concentration at 1200 min ([2]; 7 µg/mouse, Lung) of the same molecule?
**A.** 4 ± 3 ng/g

**Q.** What about the concentration at 0 min [2, 4] of the same molecule?
**A.** 6920 ± 265 ng/g

**Q.** What about the concentration at 30 min [2, 4] of the same molecule?
**A.** 4310 ± 1550 ng/g

**Q.** And the concentration at 60 min [2, 4]?
**A.** 4610 ± 1410 ng/g

**Q.** What about the concentration at 1200 min [2, 4] of the same molecule?
**A.** 1540 ± 751 ng/g

**Q.** What about the concentration at 0 min [2, 5] of the same molecule?
**A.** 2 ± 1 ng/g

**Q.** What about the concentration at 30 min [2, 5] of the same molecule?
**A.** 12 ± 5 ng/g

**Q.** And the CPT in tissue [3, 6]?
**A.** 7.1 ng/gm and 8.3 ng/gm and 22.6 ng/gm and 17.7 ng/gm

**Q.** And the CPT in tissue [3, 7]?
**A.** 21.8 ng/gm and 18.0 ng/gm and 50.0 ng/gm and 29.3 ng/gm

**Q.** And the CPT in tissue [3, 8]?
**A.** 44.3 ng/gm (2×) and 21.9 ng/gm and 178.0 ng/gm

**Q.** And the CPT in tissue ([3]; Lung, after 15 minutes inhalation of CPT liposome aerosol (0.2 mg/ml in nebulizer))?
**A.** 48.0 ng/gm and 27.0 ng/gm and 77.5 ng/gm and 52.0 ng/gm

**Q.** What about the CPT in tissue [3, 9] of the same molecule?
**A.** 16.4 ng/gm and 11.4 ng/gm and 25.0 ng/gm and 12.0 ng/gm

**Q.** What about the concentration at 15 min [3, 6] of the same molecule?
**A.** 13.9 ± 7.5 ng/g

**Q.** And the concentration at 15 min [3, 7]?
**A.** 29.8 ± 14.3 ng/g

**Q.** What about the concentration at 15 min [3, 8] of the same molecule?
**A.** 72.1 ± 71.4 ng/g

**Q.** What about the concentration at 15 min ([3]; Lung, after 15 minutes inhalation of CPT liposome aerosol) of the same molecule?
**A.** 51.1 ± 20.7 ng/g

**Q.** What about the concentration at 15 min [3, 9] of the same molecule?
**A.** 16.2 ± 6.3 ng/g

Source: US7348025B2, “Small particle liposome aerosols for delivery of anticancer drugs” (priority 1999, dated 2008)
